Series [1] has as its target T1, human type 1 glycine transporter (GlyT1) (Homo sapiens, UniProt P48067).
T1 construct: Glioma T98G cells endogenously expressing human type 1 glycine transporter (GlyT1) were used; endogenous in cells; host or cells: T98G human glioma cells
T1 sequence (P48067 1-706): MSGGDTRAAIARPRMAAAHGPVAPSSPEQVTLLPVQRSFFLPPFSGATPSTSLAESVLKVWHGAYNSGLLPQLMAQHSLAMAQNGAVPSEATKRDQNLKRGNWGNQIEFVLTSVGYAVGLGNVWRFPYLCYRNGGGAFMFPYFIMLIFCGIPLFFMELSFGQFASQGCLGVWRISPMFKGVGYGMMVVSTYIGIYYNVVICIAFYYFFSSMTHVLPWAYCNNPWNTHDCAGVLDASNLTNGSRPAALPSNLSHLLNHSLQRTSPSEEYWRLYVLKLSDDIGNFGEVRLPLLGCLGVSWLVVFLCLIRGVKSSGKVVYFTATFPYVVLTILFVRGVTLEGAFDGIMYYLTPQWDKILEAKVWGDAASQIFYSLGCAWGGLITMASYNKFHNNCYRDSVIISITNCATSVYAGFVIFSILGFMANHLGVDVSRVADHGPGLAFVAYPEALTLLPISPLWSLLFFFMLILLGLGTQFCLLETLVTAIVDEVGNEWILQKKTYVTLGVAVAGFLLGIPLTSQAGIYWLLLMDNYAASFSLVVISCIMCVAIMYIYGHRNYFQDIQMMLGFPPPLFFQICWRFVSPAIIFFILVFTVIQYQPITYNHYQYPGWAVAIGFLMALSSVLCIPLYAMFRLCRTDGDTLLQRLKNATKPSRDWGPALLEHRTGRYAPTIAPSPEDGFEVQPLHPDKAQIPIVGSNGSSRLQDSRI
Put plainly: Glycine uptake inhibition experiment ([3H]glycine uptake in T98G cells). The class given is cell-based. The settings on record: [3H]glycine 250 nM, 15 min, room temperature. How it is done:
A glycine uptake experiment was conducted as described in Neuron, 8, 927-935, 1992. Glioma T98G cells endogenously expressing human type 1 glycine transporter (GlyT1) were used. T98G cells were seeded in a 96-well plate at 2.0×10^4 cells/well and cultured overnight in a CO2 incubator. A test compound was dissolved in a 100% DMSO solution and then dissolved in 10 mM HEPES buffer (pH 7.4) containing 150 mM sodium chloride, 1 mM calcium chloride, 5 mM potassium chloride, 1 mM magnesium chloride, 10 mM glucose and 0.2% bovine serum albumin. After removing the cell culture medium, the cells were pre-treated with the test compound for 10 minutes. Subsequently, the test compound and [^3H]glycine (final concentration: 250 nM) were added to the cells and incubated at room temperature for 15 minutes. After the incubation, the extracellular solution was aspirated with a manifold to remove the excess labeled glycine existing outside the cells, and the cells were then lysed with 0.5 M aqueous sodium hydroxide. The amount of glycine uptake was determined by measuring radioactivity in the cell lysate using a liquid scintillation counter. Glycine uptake in the presence of 10 μM ALX5407 was defined as non-specific uptake, and the value calculated by subtracting this non-specific uptake from the total uptake in the absence of 10 μM ALX5407 was defined as specific uptake. Moreover, an inhibition curve was obtained for each test compound at concentrations of […] to calculate the glycine uptake inhibitory activity (IC50 value) of each test substance.
It should be noted that ALX5407 is a HCl salt of N-[(3R)-3-([1,1′-biphenyl]-4-yloxy)-3-(4-fluorophenyl)propyl]-N-methylglycine.

Series [2] concerns the target T2, P-glycoprotein (P-gp) (Homo sapiens, UniProt P08183).
T2 construct: expressed in transfected cells; host or cells: LLC-GA5-COL300 (pig kidney LLC-PK1 cells expressing human MDR1)
Description: Test for substrate recognition by P-gp (LLC-GA5-COL300 cells). The class given is in vitro ADME. The settings on record: 10 μM, Human MDR1-expressing LLC-GA5-COL300 cells, Apical to Basolateral and Basolateral to Apical. An excerpt: In the case of drugs that act on the central nervous system, it is generally important for such drugs to be transferred from blood into brain for development of their efficacy. In the blood-brain barrier, there is found P-glycoprotein (P-gp), which is a typical member of the efflux transporters that control drug penetration; and P-gp inhibits the penetration of its substrate drugs into the brain. Thus, in developing a drug, recognition performance as a P-gp substrate can be used as an indicator of brain penetration.
A test for substrate recognition by P-gp was conducted as described in J. Pharmacol. Exp. Ther. (1992) Vol. 263, No. 2, 840-845 and J. Biol. Chem. (1992) Vol. 267, No. 34, 24248-24252. Specifically, LLC-GA5-COL300 cells (i.e., a Human MDR1-expressing system originating from a pig kidney-derived cultured renal epithelial cell line, LLC-PK1) were used after being cultured for 4 days on trans wells, and the medium in each well was replaced by Hank's balanced salt solution (HBSS) immediately before use in the test. After a test compound solution (i.e., a DMSO solution of a test compound, which was further diluted with HBSS and adjusted to a final concentration of 10 μM) was added to the Donor side of the LLC-GA5-COL300 cells, aliquots of HBSS were sampled over time from the Acceptor side to determine the test compound concentration in each collected sample by LC-MS/MS.
The membrane permeability coefficient (×10^−6 cm/sec) was calculated by the accumulated amount of the compound into the Acceptor side for both directions, Apical to Basolateral and Basolateral to Apical. and the ratio of these coefficients (Efflux Ratio) was then used to evaluate substrate recognition by P-gp.

Series [3] concerns male Sprague-Dawley rats. Put plainly: Social recognition test (MK-801-treated rats). The settings on record: rat; for Ratio (second exploration time/first exploration time): MK-801 0.1 mg/kg i.p. The class given is in vivo. The method, then:
This experiment was performed using male Sprague-Dawley rats according to the reported method (Shimazaki et al., Psychopharmacology, 209, 263-270, 2010). Adult rats (9 weeks old) received intraperitoneal administration of MK-801 (0.1 mg/kg), and were immediately placed in test cages and acclimated for 30 minutes. Thereafter, juvenile rats (4 weeks old) were placed in the same test cages, where juvenile rats and adult rats were left for 5 minutes, during which the time it took for the adult rats to show social behavior (sniffing, grooming, following) to the juvenile rats was measured (first exploration time). Then, the juvenile rats were removed from the test cages and returned to their home cages. After 30 minutes, the same juvenile rats that were used in the first exploration were placed in the test cages, and the time it took for the adult rats to show social behavior (sniffing, grooming, following) to the juvenile rats during a 5-minute period was measured (second exploration time). The social recognition was expressed as the ratio of second exploration time to first exploration time. The test substance (Compound 10) was orally administered one hour before the start of first exploration. The vehicle group was administered a 0.5% methyl cellulose solution.

Where [4] appears, read: read-out: glycine uptake inhibitory activity (IC50 value).

Each structure is given as a SMILES string. Where two headings read alike, the source gives them in different places.

T2 sequence (P08183 whole entry): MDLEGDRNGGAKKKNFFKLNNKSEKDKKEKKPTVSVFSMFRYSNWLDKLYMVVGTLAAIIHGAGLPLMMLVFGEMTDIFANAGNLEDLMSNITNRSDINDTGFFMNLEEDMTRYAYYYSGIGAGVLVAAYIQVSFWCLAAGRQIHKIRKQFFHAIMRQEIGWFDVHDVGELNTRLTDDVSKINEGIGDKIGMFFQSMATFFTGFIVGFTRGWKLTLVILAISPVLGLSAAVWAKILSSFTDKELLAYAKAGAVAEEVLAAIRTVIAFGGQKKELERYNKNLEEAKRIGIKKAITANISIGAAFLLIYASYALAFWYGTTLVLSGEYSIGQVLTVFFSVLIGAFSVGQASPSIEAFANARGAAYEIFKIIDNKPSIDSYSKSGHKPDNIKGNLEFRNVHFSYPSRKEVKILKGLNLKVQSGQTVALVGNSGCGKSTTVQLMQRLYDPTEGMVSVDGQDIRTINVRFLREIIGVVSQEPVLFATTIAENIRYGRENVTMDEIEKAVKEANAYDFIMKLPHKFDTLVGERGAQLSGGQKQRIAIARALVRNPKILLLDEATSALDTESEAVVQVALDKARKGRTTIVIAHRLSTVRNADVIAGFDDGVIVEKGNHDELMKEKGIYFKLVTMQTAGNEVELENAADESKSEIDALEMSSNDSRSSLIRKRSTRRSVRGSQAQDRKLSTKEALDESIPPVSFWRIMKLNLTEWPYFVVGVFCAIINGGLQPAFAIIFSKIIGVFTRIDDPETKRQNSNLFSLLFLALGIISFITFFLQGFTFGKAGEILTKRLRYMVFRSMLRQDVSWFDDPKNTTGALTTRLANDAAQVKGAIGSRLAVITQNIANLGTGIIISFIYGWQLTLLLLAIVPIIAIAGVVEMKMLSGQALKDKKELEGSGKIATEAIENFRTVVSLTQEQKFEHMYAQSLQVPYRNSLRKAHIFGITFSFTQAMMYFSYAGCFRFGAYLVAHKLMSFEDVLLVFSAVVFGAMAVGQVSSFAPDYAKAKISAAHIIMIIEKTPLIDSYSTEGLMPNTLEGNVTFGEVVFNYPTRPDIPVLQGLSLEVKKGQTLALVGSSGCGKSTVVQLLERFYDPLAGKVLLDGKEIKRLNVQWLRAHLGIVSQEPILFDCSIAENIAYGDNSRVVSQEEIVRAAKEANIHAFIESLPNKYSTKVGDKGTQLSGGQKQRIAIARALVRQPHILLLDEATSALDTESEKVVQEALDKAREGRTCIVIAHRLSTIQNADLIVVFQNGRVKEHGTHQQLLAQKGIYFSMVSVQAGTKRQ

Take `CC(C)N(Cc1ccc(F)c(-c2ccc(OC(F)(F)F)cc2)c1)C(=O)c1cn(C)cn1` [Compound 10, N-{[6-Fluoro-4′-(trifluoromethoxy)biphenyl-3-yl]methyl}-1-methyl-N-(propan-2-yl)-1H-imidazole-4-carboxamide]: the IC50 (usually the concentration that gives 50% inhibition) in series [1] (setting [4]) worked out at 14.8 nM. The “recognition as a P-gp substrate (Efflux Ratio criteria)” value in series [2] is “not to be recognized as a P-gp substrate”. Besides, the “Ratio (second exploration time/first exploration time)” value in series [3] (0.1 mg/kg orally one hour before first exploration, p<0.05) was 0.65 ± 0.05 ^p<0.05; in series [3] (0.3 mg/kg orally one hour before first exploration, p<0.01), 0.60 ± 0.06 ^p<0.01. Further, in series [3] (compared to the vehicle group, oral), the “effect on cognitive functions (social recognition, in words)” value is listed as “enhancing effect on cognitive functions”.

For the molecule `COc1cccc(-c2cc(CN(C(=O)c3cn(C)cn3)C(C)C)ccc2F)c1` [Compound 24], in series [1] (setting [4]), the IC50 was determined as 14.2 nM. Besides, the “recognition as a P-gp substrate (Efflux Ratio criteria)” value in series [2] is given as “not to be recognized as a P-gp substrate”.

Take `CC(C)N(Cc1ccc(F)c(-c2cc(F)c(F)c(F)c2)c1)C(=O)c1cn(C)cn1` [Compound 36]: the IC50 in series [1] (setting [4]) was found to be 38.2 nM. Besides, in series [2], the “recognition as a P-gp substrate (Efflux Ratio criteria)” value was “not to be recognized as a P-gp substrate”.

On to `CC(C)N(Cc1ccc(F)c(-c2ccc(OC(F)(F)F)cc2)c1)C(=O)c1c[nH]cn1` [Compound 54], for which the IC50 in series [1] (read-out: glycine uptake inhibitory activity (IC50 value), bounds) was more than 1000 nM. Besides, the “recognition as a P-gp substrate (Efflux Ratio criteria)” value in series [2] was “not to be recognized as a P-gp substrate”.

The record behind these values is patent US20120116095A1, “GLYCINE TRANSPORTER INHIBITORS” (TAISHO PHARMACEUTICAL C0., LTD., priority 2009, published 2012).
